Test results as given in paper PMC3466219 (PLoS ONE, 2012).
pIC50: −log10 of the molar value. “And” between values parts separate entries of the source, which are not always exact repeats. Equal values may be shown once. Read-outs that look alike come from different tables or passages of the source. Blank lines part the entries; values can stand above or below the compound they belong to.

Tests used:
[1] = test system: acetylated histone H4K16, H3K14 and H4K8 in LNCaP cells; assay: Western blotting of histone acetylation in LNCaP cells; conditions: Western blot
[2] = test system: Tip60 levels in LNCaP cells; assay type: cell-based; conditions: increasing concentrations, 24 hours, Western blot
From the text: Representative blots are shown for duplicate experiments.

[3] = molecular target: Tip60 (Homo sapiens, UniProt Q92993); assay: In vitro HAT assay, Tip60; conditions: for inhibition at 100 µM: read-out: Tip60 % inhibition at 100 µM; for Tip60 inhibitory activity (in words): in vitro HAT assay
Tip60, sequence (Q92993 whole entry): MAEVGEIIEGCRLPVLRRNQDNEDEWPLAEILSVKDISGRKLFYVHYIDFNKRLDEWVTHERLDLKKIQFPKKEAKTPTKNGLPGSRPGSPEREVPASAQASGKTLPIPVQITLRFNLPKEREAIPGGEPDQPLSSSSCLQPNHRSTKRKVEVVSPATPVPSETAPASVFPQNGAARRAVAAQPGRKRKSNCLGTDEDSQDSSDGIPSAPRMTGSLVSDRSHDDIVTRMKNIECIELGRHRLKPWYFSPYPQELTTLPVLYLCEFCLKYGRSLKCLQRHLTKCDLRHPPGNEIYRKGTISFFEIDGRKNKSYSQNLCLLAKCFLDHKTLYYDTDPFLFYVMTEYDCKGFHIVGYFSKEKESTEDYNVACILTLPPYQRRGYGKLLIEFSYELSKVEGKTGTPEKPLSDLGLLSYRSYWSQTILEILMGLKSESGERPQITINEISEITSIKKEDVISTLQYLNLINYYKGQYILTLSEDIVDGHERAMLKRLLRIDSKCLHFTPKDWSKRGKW

[4] = molecular target: T1, PCAF (Homo sapiens, UniProt Q92831); assay: In vitro HAT assay, PCAF; assay type: biochemical; conditions: individual IC50 values
T1 construct: GST; made in house; host or cells: XA90 Escherichia coli
T1 sequence (Q92831 whole entry, species assumed): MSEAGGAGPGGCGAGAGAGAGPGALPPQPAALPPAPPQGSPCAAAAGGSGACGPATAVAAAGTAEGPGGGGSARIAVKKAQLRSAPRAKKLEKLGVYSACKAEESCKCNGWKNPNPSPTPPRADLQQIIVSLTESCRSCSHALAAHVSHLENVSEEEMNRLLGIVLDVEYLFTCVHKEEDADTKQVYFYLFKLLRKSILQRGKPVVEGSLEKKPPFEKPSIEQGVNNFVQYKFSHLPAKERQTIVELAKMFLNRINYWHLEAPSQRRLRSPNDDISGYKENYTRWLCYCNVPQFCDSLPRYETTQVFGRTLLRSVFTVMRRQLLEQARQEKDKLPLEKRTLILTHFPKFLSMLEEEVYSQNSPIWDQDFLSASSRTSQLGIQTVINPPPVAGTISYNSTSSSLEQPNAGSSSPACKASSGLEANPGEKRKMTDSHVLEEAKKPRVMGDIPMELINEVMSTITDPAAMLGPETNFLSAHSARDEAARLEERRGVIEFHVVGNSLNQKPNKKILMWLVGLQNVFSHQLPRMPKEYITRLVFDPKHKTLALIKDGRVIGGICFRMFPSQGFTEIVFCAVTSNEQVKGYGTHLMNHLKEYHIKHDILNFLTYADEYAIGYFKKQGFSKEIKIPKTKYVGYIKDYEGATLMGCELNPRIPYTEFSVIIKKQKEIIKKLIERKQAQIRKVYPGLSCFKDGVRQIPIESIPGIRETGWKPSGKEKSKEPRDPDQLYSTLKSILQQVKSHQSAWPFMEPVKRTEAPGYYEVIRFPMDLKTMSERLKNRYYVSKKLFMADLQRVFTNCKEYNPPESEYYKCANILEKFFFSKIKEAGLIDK
Experimental: (§1) Assays were performed in quadruplicate.
(§2) Purification of recombinant HAT enzymes (GST-tagged)- Expression constructs, pGEX-p300 and pGEX-PCAF, obtained from Dr Andrew Bannister (Cambridge Cancer Centre, UK), were transformed into XA90 Escherichia coli cells. A single colony was selected and grown to an OD 0.5 IPTG (1 mM) induction was carried out for 4 hours then cell pellets were collected, lysed, and sonicated. Supernatants were then passed through glutathione Sepharose 4B (GE Healthcare) and purified protein was eluted with 50 mM Tris-HCl, 10 mM reduced glutathione, pH 8. Eluted fractions were tested for enzymatic activity by HAT assay.

[5] = molecular target: T2, p300 (Homo sapiens, UniProt Q09472); assay: In vitro HAT assay, p300; assay type: biochemical; conditions: individual IC50 values
T2 sequence (Q09472 1287-1663 limits assumed): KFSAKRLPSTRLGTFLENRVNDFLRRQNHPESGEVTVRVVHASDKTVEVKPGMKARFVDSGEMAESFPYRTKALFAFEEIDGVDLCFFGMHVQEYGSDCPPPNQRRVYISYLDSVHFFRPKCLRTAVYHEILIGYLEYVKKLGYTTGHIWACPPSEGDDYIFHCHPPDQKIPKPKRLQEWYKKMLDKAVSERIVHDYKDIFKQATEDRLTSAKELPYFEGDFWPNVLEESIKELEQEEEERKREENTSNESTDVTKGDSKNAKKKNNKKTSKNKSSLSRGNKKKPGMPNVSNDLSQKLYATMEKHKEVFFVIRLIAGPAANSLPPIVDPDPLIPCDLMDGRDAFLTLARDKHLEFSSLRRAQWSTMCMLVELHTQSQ
Experimental: as §1, §2

[6] = molecular target: GCN5 (Homo sapiens, UniProt Q92830); assay: In vitro HAT assay, GCN5; assay type: biochemical
GCN5, sequence (Q92830 whole entry, species assumed): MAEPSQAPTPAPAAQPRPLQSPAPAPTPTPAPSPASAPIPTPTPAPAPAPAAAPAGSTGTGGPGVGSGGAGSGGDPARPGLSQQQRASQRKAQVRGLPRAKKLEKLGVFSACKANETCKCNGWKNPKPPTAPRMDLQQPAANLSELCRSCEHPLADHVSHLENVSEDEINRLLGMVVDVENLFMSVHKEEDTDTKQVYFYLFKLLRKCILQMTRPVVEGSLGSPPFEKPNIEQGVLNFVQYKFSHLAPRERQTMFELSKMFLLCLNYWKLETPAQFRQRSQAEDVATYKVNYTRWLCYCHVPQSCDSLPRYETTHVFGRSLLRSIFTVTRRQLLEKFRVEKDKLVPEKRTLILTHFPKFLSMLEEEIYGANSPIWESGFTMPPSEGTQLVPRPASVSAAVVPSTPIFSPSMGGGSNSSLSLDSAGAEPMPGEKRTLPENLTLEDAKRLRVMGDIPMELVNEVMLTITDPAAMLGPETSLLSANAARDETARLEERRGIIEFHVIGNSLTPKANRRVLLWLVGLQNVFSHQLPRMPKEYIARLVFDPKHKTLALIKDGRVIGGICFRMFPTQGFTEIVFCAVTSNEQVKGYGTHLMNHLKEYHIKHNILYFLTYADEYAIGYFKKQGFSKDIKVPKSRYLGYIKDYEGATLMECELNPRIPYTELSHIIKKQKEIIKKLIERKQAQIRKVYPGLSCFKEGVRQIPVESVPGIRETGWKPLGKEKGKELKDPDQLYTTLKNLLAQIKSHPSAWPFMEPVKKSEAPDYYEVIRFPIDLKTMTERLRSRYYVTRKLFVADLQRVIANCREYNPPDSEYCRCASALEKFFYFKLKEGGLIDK
Experimental: as §1

Compound: c1cc(CCc2ccncc2)ccn1 [1,2-bis(4-pyridyl)ethane]
levels of acetylated histone H4K16, H3K14 and H4K8 ([1]; increasing concentrations for 2 hours, then TSA 2 µM for a further 4 hours): did not affect
Tip60 levels [2]: unaffected

Compound: c1ccc2sc(SSc3nc4ccccc4s3)nc2c1 [2,2′-Dithio(bis)benzothiazole]
inhibition at 100 µM [3]: 25%

Compound: Cc1ccsc1Br [2-Bromo-3-methylthiophene]
pIC50 [3]: < 4.00
Tip60 inhibitory activity (in words) [3]: inactive

Compound: Cc1cnsc1SC#N [Compound 4, 4-Methyl-5-thiocyanatoisothiazole]
inhibition at 100 µM [3]: 46%

Compound: Cc1cnsc1SSc1sncc1C [Compound 5, 1,2-Bis(4-methylisothiazol-5-yl)disulfane]
pIC50 [3]: 5.40
pIC50 [4]: 4.48 and 4.60
pIC50 [5]: 4.24 and 4.37
pIC50 [6]: < 4.00

Compound: N#CSc1ccns1 [Compound 6, 5-Thiocyanatoisothiazole]
inhibition at 100 µM [3]: 27%

Compound: Cc1cnsc1 [Compound 11, 4-Methylisothiazole]
inhibition at 100 µM [3]: 22%

Compound: CC(/C=C/C(=O)NO)=C\[C@@H](C)C(=O)c1ccc(N(C)C)cc1 [TSA, trichostatin A]
acetylation at H4K8, H4K16 and H3K14 ([1]; TSA alone 2 µM, 6 hours): acetylation was increased

Now from value to compound:

pIC50 ([3]; Tip60 IC50, in vitro HAT assay, 3H acetyl-CoA, histones as substrates, individual IC50 values): 4.21 and 4.06
Compound: c1ccc(SSc2ccccn2)nc1 [2,2′-Dithiodipyridine]

pIC50 [3]: 4.32
Compound: c1cc(SSc2ccncc2)ccn1 [4,4′-Dithiodipyridine]

Tip60 inhibitory activity (in words) [3]: inactive
inhibition at 100 µM [3]: 14%
Compound: Cc1cnsc1Br [Compound 1, 4-Methyl-5-bromoisothiazole]

inhibition at 100 µM [3]: 4%
Compound: c1ccc(SSc2ccccc2)cc1 [Diphenyl disulphide]
